# Source: patent US11564913B2, “Compositions and methods for treating cancer” (Children's Hospital Medical Center, priority 2019, dated 2023)
# Columns and labels:
# MDA-MB-231 cells [1] = assay: Cell spreading on fibronectin; type: cell-based, human; details: 30 min exposure, serum-free
# Experimental: FIG. 6: IODVA1 inhibits cell-substratum and cell-cell interactions. (A) IODVA1 impedes spreading of MCF7 and MDA-MB-231 cells on fibronectin. MCF7, T47D, and MDA-MB-231 cells were incubated on fibronectin coated coverslips for 10 min, then further incubated with the indicated concentrations of IODVA1 for 30 min in serum-free media, fixed and observed by bright field microscopy. Areas of single cells were calculated from 6 random fields (no less than 300 cells total per treatment group). Results shown are mean±s.e.m. of a single experiment and are representative of three independent experiments. (B) Effects of IODVA1 treatment on spheroid formation in MCF10A, MCF7, T47D, and MDA-MB-231 cells. […] Aggregates and spheroids were dissociated with accutase and trituration, and the number of live cells was determined by trypan blue exclusion. […]
# Applicants assessed if IODVA1 interferes with cell spreading on the extracellular matrix, an event that is also governed by the rearrangement of the actin cytoskeleton. […] No changes in the area in T47D cells were detected, although more rounded cells in the presence of IODVA1 were observed.
# For cell spreading, MDA-MB-231, MCF7 and T47D were seeded on fibronectin-coated coverslips in serum-free media. […] Six random fields were imaged under 20× objective and cell area of individual cells were quantified to assess the degree of spreading (ImageJ). […]
# MDA-MB-231 cells [2] = assay: EGF-induced lamellipodia formation / F-actin staining; type: cell-based, human
# Experimental: FIG. 5: Cytoskeletal changes induced by IODVA1 treatment. IODVA1 inhibits lamellipodia and circular dorsal ruffle (CDR) formation in MDA-MB-231 cells and decreases Rac activation. (A) IODVA1 inhibits EGF-induced lamellipodia formation in MDA-MB-231 cells. MDA-MB-231 cells were plated on fibronectin-coated coverslips, serum starved for 4 h, […], fixed and stained with Phalloidin Alexa Fluor 594 (F-Actin, pseudocolored red) and DAPI (nuclei, pseudocolored blue). Representative images show lamellipodia formation and enrichment of actin staining at the leading edge (white closed arrowheads) at 0 and 0.3 μM concentrations and lack of lamellipodia with rounded cell morphology at 1 and 3 μM. Note equally distributed phalloidin staining with presence of stress fibers in the cell body of the 1 and 3 μM treated-cells (white open arrowheads) indicative of stationary cells. Scale bar=10 μm. […] The percentage of cells with CDRs was counted as the number of cells with CDRs normalized to the total number of cells in the field. Around 150 cells were counted per condition per experiment. Cells with multiple CDRs were counted only once. […] Levels of active Rac (RacGTP, % of control), active Cdc42 (Cdc42GTP, % of control) and active RhoA (RhoAGTP, % of control) were quantified using ImageJ and ImageLab and show combined data as mean±s.e.m. from at least 3 independent experiments. […]
structure (smiles),measurement,setting,value
"OC1(c2ccccn2)N=C(Nc2nc3ccccc3[nH]2)N=C1c1ccccn1 (stereo not drawn) [IODVA1, (Z)-2-((1H-benzo[d]imidazol-2-yl)imino)-4,5-di(pyridin-2-yl)-2,5-dihydro-1H-imidazol-5-ol]",concentration at which spreading is interfered with (decrease in cell area),MDA-MB-231 cells [1],1 µM
same,lamellipodia formation and enrichment of cortical filamentous actin,"MDA-MB-231 cells [2]; 0-3 μM for 1 h, then EGF for 30 min",inhibited
same,overall filamentous actin staining,"MDA-MB-231 cells [2]; EGF, wash out, then 3 μM within 30 min",qualitatively reduced
